Reference: patent US12391723B2, “Steroids and methods of manufacture” (Trustees of Dartmouth College, priority 2017, dated 2025)
Several values for one entry are separate records, joined by “and”; a condition that tells them apart may be missing. Equal values may be shown once.

Assays:
[1] = system: three human cancer cell lines; assay: Growth inhibition by compound 39, total DNA content after 7 days growth; type: cell-based; conditions: 168 h, range across three human cancer cell lines, read-out: 50% inhibitory concentrations
Method: (§1) The following day, ent-steroidal compound 39 was added in 2-fold dilutions (8 wells/concentration). After 7 days growth, cells were lysed and analyzed for total DNA content as described in Montano et al. (See, Montano, R., et al., Mol. Cancer Therap., 11:427-438 [2012]).

MDA-MB-231 [2] = assay: Growth inhibition by Compound 39 (DNA fluorescence, FIG. 3D); type: cell-based; conditions: Homo sapiens, read-out: calculated GI50 against MDA-MB-231
Method: as §1
(§2) Compound 39 was also investigated for growth inhibition in three cancer cell lines: MDA-MB-231, AsPC-1, and U2OS (human osteosarcoma).

AsPC-1 [3] = assay: as above; type: cell-based; conditions: Homo sapiens, ASPC1, read-out: calculated GI50 against AsPC-1
Method: as §1, §2

[4] = system: U2OS (human osteosarcoma); assay: as above; type: cell-based; conditions: read-out: calculated GI50 against U2OS
Method: as §1, §2

MDA-MB-231 [5] = assay: In vitro growth inhibition (Hoechst 33258 DNA fluorescence, 6 days); type: cell-based; conditions: Homo sapiens, MDA-MB-231, 144 h, concentration that inhibited growth by 50%, 2-fold dilutions from 40 μM
Method: (§3) Fifteen (15) exemplary compounds were investigated for growth inhibition in two cancer cell lines (one for breast and one for pancreatic cancer: MDA-MB-231 and AsPC-1, respectively).
(§4) Procedure: Inhibition of cell growth was accessed by plating 1000 cells per well of a 96-well plate. The following day, compounds were added as 2-fold dilutions from 40 μM (8 wells/concentration). After 6 days, cells were washed, lysed and stained with Hoechst 33258. Fluorescence was read on a microplate spectrofluorometer. Results are expressed as the concentration that inhibited growth by 50% (GI50). See Rao, J., Otto, W. R. Fluorometric DNA assay for cell growth estimation. Anal Biochem. 1992; 207:186-192.

AsPC-1 [6] = assay: as above; type: cell-based; conditions: Homo sapiens, ASPC1, 144 h, concentration that inhibited growth by 50%, 2-fold dilutions from 40 μM
Method: as §3, §4

ER-α = target: T1, ER-α (Homo sapiens, UniProt P03372); assay: ER-α agonist activity; type: cell-based
T1 sequence (P03372 1-595): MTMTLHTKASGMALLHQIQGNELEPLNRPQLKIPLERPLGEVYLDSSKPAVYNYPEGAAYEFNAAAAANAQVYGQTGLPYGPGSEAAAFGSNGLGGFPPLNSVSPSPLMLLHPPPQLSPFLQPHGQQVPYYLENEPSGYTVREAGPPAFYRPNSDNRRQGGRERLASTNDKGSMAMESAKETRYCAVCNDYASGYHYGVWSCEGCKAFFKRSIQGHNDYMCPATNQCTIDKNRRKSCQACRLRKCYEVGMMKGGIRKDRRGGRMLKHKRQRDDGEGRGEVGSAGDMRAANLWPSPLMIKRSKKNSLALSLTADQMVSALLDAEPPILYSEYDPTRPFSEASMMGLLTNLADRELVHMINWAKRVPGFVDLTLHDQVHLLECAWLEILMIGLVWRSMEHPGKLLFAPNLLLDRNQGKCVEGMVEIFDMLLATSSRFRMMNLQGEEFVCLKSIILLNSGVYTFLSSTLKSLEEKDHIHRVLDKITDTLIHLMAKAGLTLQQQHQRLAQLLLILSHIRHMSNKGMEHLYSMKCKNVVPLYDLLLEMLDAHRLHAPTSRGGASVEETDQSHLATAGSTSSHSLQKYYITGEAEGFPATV

CLK-4 = CLK-4 (Homo sapiens, UniProt Q9HAZ1); assay: Affinity to CLK-4; type: binding; conditions: member of the family of CDC-2-like kinases
ER-β = ER-β (Homo sapiens, UniProt Q92731); assay: ER-β agonist activity; type: cell-based
[7] = system: cancer cell lines (MDA-MB-231, AsPC-1, and A549); assay: Cell cycle analysis and microscopic analysis of cancer cells treated with Compound 205b; type: cell-based, human; conditions: at 0.8-5 μM
Method: (§5) Compound 205b has been identified as a uniquely potent and selective agonist of ER-β, having an EC50=20 nM for ER-β and an EC50 over 3000 nM for ER-α.

[8] = system: MDA-MB-231, AsPC-1, and A549; assay: Growth of several cancer cell lines incubated with Compound 205b; type: cell-based, human; conditions: range across MDA-MB-231, AsPC-1, and A549
Method: as §4, §5

Chain of ER-β (Q92731 whole entry, species assumed): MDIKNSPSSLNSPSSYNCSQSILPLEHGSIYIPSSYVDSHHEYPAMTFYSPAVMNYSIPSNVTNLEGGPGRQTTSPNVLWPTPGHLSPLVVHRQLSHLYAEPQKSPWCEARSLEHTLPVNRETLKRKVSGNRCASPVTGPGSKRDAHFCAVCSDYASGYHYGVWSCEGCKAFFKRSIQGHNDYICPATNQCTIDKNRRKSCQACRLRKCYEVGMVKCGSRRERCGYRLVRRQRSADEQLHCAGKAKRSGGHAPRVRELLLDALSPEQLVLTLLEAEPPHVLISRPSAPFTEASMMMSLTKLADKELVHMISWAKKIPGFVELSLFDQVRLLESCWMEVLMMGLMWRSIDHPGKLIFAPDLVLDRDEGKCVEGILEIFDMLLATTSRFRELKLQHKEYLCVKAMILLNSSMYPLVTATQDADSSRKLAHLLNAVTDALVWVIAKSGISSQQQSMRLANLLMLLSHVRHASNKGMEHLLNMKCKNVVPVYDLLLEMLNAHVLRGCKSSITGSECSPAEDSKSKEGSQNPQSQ
Chain of CLK-4 (Q9HAZ1 whole entry, species assumed): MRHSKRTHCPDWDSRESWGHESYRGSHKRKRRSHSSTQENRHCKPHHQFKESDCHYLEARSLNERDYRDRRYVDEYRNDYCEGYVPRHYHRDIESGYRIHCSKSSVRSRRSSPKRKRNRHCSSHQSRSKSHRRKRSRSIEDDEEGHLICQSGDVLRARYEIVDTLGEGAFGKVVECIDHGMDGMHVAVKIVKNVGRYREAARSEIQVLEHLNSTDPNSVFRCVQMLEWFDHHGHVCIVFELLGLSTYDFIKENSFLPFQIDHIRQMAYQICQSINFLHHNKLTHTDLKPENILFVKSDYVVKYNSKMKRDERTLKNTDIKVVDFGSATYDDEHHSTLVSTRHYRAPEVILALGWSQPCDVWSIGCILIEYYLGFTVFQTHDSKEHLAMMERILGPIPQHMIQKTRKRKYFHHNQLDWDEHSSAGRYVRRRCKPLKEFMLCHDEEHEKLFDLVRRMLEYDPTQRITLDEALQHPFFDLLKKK

SMILES: C[C@@]12CC=C3C(=CC(=O)c4ccccc43)[C@H]1C[C@H](O)C2 [Compound 39]
- IC50 [1]: 1.2 µM to 4 µM and 0.32 µg/mL to 1.07 µg/mL
- GI50 (MDA-MB-231 [2]): 0.32 µg/mL and 1.2 µM
- GI50 (AsPC-1 [3]): ~4 µM
- GI50 [4]: ~4 µM

SMILES: COc1ccc2c(Br)cc3c(c2c1)CC[C@]1(C)C[C@H](O)C[C@@H]31 [Compound 201a]
- GI50 (MDA-MB-231 [5]): 15 µM
- GI50 (AsPC-1 [6]): 15 µM

SMILES: COc1ccc2ccc3c(c2c1)CC[C@]1(C)C[C@H](O)C[C@@H]31 [Compound 201b]
- GI50 (MDA-MB-231 [5]): 25 µM
- GI50 (AsPC-1 [6]): 30 µM

SMILES: COc1ccc2c(C#Cc3ccccc3)cc3c(c2c1)CC[C@]1(C)C[C@H](O)C[C@@H]31 [Compound 201c]
- GI50 (MDA-MB-231 [5]): 20 µM
- GI50 (AsPC-1 [6]): 30 µM

SMILES: C[C@]12CCc3c(cc(Br)c4ccc(O)cc34)[C@@H]1C[C@@H](O)C2 [Compound 205a]
- GI50 (MDA-MB-231 [5]): 17 µM
- GI50 (AsPC-1 [6]): 10 µM

SMILES: C[C@]12CCc3c(ccc4ccc(O)cc34)[C@@H]1C[C@@H](O)C2 [Compound 205b]
- EC50 (ER-α): > 3 µM
- Kd (CLK-4): ~0.35 µM
- GI50 (MDA-MB-231 [5]): 0.8 µM
- GI50 (AsPC-1 [6]): 2 µM
- EC50 (ER-β): 0.02 µM
- mitotic arrest by microscopic analysis [7]: cells arrested in mitosis at prometaphase
- cell cycle arrest ([7]; parallel experiments): arrested cells in G2/M phase of the cell cycle
- concentration at which growth was inhibited [8]: 0.8 to 5 µM

SMILES: C[C@]12CCc3c(cc(C#Cc4ccccc4)c4ccc(O)cc34)[C@@H]1C[C@@H](O)C2 [Compound 205c]
- GI50 (MDA-MB-231 [5]): 8 µM
- GI50 (AsPC-1 [6]): 9 µM

SMILES: COc1ccc2c(Br)cc3c(c2c1)CC[C@]1(C)C[C@@H](O)C[C@@H]31 [Compound 206a]
- GI50 (MDA-MB-231 [5]): 20 µM
- GI50 (AsPC-1 [6]): 20 µM

SMILES: COc1ccc2ccc3c(c2c1)CC[C@]1(C)C[C@@H](O)C[C@@H]31 [Compound 206b]
- GI50 (MDA-MB-231 [5]): 30 µM
- GI50 (AsPC-1 [6]): 40 µM

SMILES: COc1ccc2c(C#Cc3ccccc3)cc3c(c2c1)CC[C@]1(C)C[C@@H](O)C[C@@H]31 [Compound 206c]
- GI50 (MDA-MB-231 [5]): 15 µM
- GI50 (AsPC-1 [6]): 15 µM

SMILES: C[C@]12CCc3c(cc(Br)c4ccc(O)cc34)[C@@H]1C[C@H](O)C2 [Compound 207a]
- GI50 (MDA-MB-231 [5]): 30 µM
- GI50 (AsPC-1 [6]): 30 µM

SMILES: C[C@]12CCc3c(ccc4ccc(O)cc34)[C@@H]1C[C@H](O)C2 [Compound 207b]
- GI50 (MDA-MB-231 [5]): 20 µM
- GI50 (AsPC-1 [6]): 40 µM

SMILES: C[C@]12CCc3c(cc(C#Cc4ccccc4)c4ccc(O)cc34)[C@@H]1C[C@H](O)C2 [Compound 207c]
- GI50 (MDA-MB-231 [5]): 5 µM
- GI50 (AsPC-1 [6]): 15 µM

SMILES: COc1ccc2c(F)cc3c(c2c1)CC[C@]1(C)C[C@H](O)C[C@@H]31 [Compound 208a]
- GI50 (MDA-MB-231 [5]): 25 µM
- GI50 (AsPC-1 [6]): 30 µM

SMILES: C[C@]12CCc3c(cc(F)c4ccc(O)cc34)[C@@H]1C[C@@H](O)C2 [Compound 208b]
- GI50 (MDA-MB-231 [5]): 4 µM
- GI50 (AsPC-1 [6]): 8 µM

SMILES: COc1ccc2c(F)cc3c(c2c1)CC[C@]1(C)C[C@@H](O)C[C@@H]31 [Compound 208c]
- GI50 (MDA-MB-231 [5]): 5 µM
- GI50 (AsPC-1 [6]): 25 µM
